Data from patent publication US20240018119A1, “CARBOXAMIDE DERIVATIVE AND PHARMACEUTICAL COMPOSITION COMPRISING SAME AS ACTIVE INGREDIENT FOR PREVENTING OR TREATING MENTAL ILLNESS” (DAEGU-GYEONGBUK MEDICAL INNOVATION FOUNDATION, priority 2020, published 2024).

Assays:
[1] = test system: male ICR mice; test: Hyperactivity inhibitory effect, open field test (EthoVision) in MK801-treated mice; format: in vivo; settings: for movement duration: vehicle about 880 s; for distance moved: vehicle about 7000 cm
Experimental: In order to evaluate the hyperactivity inhibitory effect of the compounds of Example 35 and Example 66 according to the present invention or Comparative Example 1, an experiment was performed as follows, and the results are shown in FIG. 1. An open field test is an experimental method utilized for searching for excess and decline in motor function, calmness, excitement, avoidance degree and toxicity.
The observation of the hyperactivity and behavior analysis of animals were conducted using an EthoVisiorn System (Noldus IT b.v., Netherlands) that is a type of an open field test. The animals used for the experiment were male ICR mice of 4 weeks old. To induce hyperactivity, animal models intraperitoneally administered with 0.15 mg/kg of MK801 (drug name: dizocilpine) were used, and the compounds of Example 35, example 66 or Comparative Example 1 was intraperitoneally administered by 5 mg/kg, 30 minutes ago the administration of MK801. Male ICP mice administered with 10% DMSO and 10% Tween-80 as the solvents dissolving a drug were considered a vehicle, and male ICR mice administered with MK801 […] with the Example Compound or Comparative Compound were considered a positive control. After that, in the center of a test box (40×40×30 cm) manufactured using black acryl, the mice under test were put and allowed to fit for 15 minutes, and behavior patterns were observed, recorded and analyzed for 15 minutes. Comparative analysis was conducted by measuring distance moved and movement duration.

[2] = target: T1, serotonin transporter (Homo sapiens, UniProt P31645); test: Serotonin reuptake inhibition in transporter-transfected HEK-293 cells ([3H]-5-HT); format: cell-based; settings: for Triple reuptake inhibition (Ratio %) SERT: compound 1 μM, [3H]-5-HT, relative to control without compound (100%), lower = more inhibition; for IC50: concentration at which Ratio % is 50%, 6 concentrations 1 nM to 1 μM, read-out: Triple reuptake inhibition (IC50, μM) SERT
T1 construct: expressed in transfected cells; host or cells: HEK-293
T1 sequence (P31645 whole entry): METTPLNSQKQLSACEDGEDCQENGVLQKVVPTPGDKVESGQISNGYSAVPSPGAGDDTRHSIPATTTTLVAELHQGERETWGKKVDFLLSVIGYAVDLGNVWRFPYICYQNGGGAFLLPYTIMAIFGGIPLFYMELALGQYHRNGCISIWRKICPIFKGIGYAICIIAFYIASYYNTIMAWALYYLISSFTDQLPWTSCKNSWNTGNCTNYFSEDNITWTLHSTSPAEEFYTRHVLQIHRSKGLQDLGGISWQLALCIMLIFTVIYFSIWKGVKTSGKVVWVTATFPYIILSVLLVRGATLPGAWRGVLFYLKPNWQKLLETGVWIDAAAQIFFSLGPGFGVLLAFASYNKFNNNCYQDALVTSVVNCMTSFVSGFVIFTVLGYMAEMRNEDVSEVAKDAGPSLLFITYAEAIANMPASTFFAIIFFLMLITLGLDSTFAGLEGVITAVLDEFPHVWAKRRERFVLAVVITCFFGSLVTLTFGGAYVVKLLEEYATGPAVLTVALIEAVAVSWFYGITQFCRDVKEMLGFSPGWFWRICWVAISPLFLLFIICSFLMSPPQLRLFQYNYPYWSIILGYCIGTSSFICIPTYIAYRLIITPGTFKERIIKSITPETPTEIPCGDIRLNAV

[3] = target: T2, norepinephrine transporter (Homo sapiens, UniProt P23975); test: Norepinephrine reuptake inhibition in transporter-transfected HEK-293 cells ([3H]-NE); format: cell-based; settings: for Triple reuptake inhibition (Ratio %) NET: compound 1 μM, [3H]-NE, relative to control without compound (100%), lower = more inhibition; for IC50: concentration at which Ratio % is 50%, 6 concentrations 1 nM to 1 μM, read-out: Triple reuptake inhibition (IC50, μM) NET
T2 construct: expressed in transfected cells; host or cells: HEK-293
T2 sequence (P23975 whole entry, species assumed): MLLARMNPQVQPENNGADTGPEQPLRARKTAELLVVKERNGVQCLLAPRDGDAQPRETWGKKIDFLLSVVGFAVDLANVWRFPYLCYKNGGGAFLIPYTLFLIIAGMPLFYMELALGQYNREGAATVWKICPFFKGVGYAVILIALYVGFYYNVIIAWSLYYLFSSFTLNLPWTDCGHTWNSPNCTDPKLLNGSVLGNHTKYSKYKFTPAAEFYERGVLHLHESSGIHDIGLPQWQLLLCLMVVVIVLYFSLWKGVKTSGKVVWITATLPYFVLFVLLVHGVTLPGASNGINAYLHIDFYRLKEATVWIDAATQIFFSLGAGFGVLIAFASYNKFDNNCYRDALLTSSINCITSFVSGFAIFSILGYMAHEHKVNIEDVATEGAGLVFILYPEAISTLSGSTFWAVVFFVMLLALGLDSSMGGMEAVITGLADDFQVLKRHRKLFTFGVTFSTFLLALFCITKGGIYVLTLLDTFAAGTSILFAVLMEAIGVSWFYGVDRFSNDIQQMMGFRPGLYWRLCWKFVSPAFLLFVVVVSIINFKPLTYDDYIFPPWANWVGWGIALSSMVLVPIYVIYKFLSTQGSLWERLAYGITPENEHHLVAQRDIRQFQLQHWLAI

[4] = target: T3, dopamine transporter (Homo sapiens, UniProt Q01959); test: Dopamine reuptake inhibition in transporter-transfected HEK-293 cells ([3H]-DA); format: cell-based; settings: for Triple reuptake inhibition (Ratio %) DAT: compound 1 μM, 20-30 nM [3H]-DA, relative to control without compound (100%), lower = more inhibition; for IC50: concentration at which Ratio % is 50%, 6 concentrations 1 nM to 1 μM, read-out: Triple reuptake inhibition (IC50, μM) DAT
T3 construct: expressed in transfected cells; host or cells: HEK-293
T3 sequence (Q01959 whole entry): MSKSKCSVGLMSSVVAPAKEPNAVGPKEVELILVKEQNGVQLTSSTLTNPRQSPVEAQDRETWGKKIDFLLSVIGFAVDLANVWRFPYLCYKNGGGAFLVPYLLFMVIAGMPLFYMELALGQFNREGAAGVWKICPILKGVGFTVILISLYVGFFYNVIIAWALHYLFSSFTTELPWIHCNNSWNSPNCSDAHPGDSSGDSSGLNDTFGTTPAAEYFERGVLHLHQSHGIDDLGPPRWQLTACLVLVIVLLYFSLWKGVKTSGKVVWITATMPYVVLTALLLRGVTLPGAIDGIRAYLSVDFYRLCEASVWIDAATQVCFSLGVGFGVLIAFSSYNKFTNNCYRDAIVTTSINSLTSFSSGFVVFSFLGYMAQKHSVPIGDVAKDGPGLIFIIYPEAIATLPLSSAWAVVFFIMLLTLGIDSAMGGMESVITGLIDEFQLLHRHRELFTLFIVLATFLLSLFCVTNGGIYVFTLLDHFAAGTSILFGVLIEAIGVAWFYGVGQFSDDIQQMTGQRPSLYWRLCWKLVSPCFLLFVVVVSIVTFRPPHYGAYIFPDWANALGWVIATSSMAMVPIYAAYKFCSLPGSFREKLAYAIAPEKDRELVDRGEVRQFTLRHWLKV
Method in brief: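 HEK-293 cells transfected with human DAT cDNA; compound preincubated 15 min at 37 °C in uptake buffer, then buffer containing 20-30 nM [3H]-DA added for 5 min at 37 °C. After ice-cold washes and SDS lysis, radioactivity expressed as % of untreated control; IC50 from six concentrations (1 nM–1 μM).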

[5] = positive control treated with only MK801 0.15 mg/kg i.p.

Row | SMILES | movement duration [1, 5] | distance moved [1, 5] | Triple reuptake inhibition (Ratio %) SERT [2] [%] | IC50 [2] [µM] | Triple reuptake inhibition (Ratio %) NET [3] [%] | Triple reuptake inhibition (Ratio %) DAT [4] [%] | IC50 [4] [µM] | IC50 [3] [µM] | hyperactivity of the mice induced with MK801 ([1]; 5 mg/kg intraperitoneally 30 minutes before MK801 0.15 mg/kg i.p.) | distance moved ([1]; 5 mg/kg intraperitoneally 30 minutes before MK801 0.15 mg/kg i.p., observed 15 minutes, MK801 only about 14000 cm) | movement duration ([1]; 5 mg/kg intraperitoneally 30 minutes before MK801 0.15 mg/kg i.p., MK801 only about 1070 s)
1 | C[C@]12N[C@H](Cc3ccccc31)c1ccccc12 [MK801, reference compound] | about 1070 seconds | about 14000 cm |  |  |  |  |  |  |  |  | 
2 | O=C(NCCN1CCC(Cc2ccc(F)c(F)c2)CC1)c1ccc2cc(Br)ccc2c1 [Example 6, 6-bromo-N-(2-(4-(3,4-difluorobenzyl)piperidin-1-yl)ethyl)-2-naphthamide] |  |  | 73.84 | 14 | 34.16 | 57.66 | 3.93 |  |  |  | 
3 | O=C(NCCN1CCC(Cc2ccc(F)c(F)c2)CC1)c1cc2ccccc2[nH]1 [Example 27, N-(2-(4-(3,4-difluorobenzyl)piperidin-1-yl)ethyl)-1H-indol-2-carboxamide] |  |  | 75.39 |  | 69.72 | 71.77 |  |  |  |  | 
4 | O=C(NCCN1CCC(c2c[nH]c3ccccc23)CC1)c1cc2ccccc2[nH]1 [Example 37, N-(2-(4-(1H-indol-3-yl)piperidin-1-yl)ethyl)-1H-indol-2-carboxamide] |  |  | 32.42 |  | 76.15 | 38.64 |  |  |  |  | 
5 | CCCCOc1ccc2cc(C(=O)NCCN3CCC(Cc4ccccc4)CC3)[nH]c2c1 [Example 42, N-(2-(4-benzylpiperidin-1-yl)ethyl)-6-butoxy-1H-indol-2-carboxamide] |  |  | 46.64 | 0.68 | 44.53 | 45.67 | 0.338 | 0.171 |  |  | 
6 | O=C(NCCN1CCC(Cc2ccccc2)CC1)c1cc2c(Cl)cc(Cl)cc2[nH]1 [Example 39, N-(2-(4-benzylpiperidin-1-yl)ethyl)-4,6-dichloro-1H-indol-2-carboxamide] |  |  | 76.27 |  | 63.99 | 40.9 |  |  |  |  | 
7 | O=C(NCCN1CCN(c2ccc(Cl)c(Cl)c2)CC1)c1ccc2cc(Br)ccc2c1 [Example 3, 6-bromo-N-(2-(4-(3,4-dichlorophenyl)piperazin-1-yl)ethyl)-2-naphthamide] |  |  | 77.91 |  | 110.56 | 104.38 |  |  |  |  | 
8 | O=C(NCCN1CCC(Cc2ccccc2)CC1)c1cc2cc(O)ccc2[nH]1 [Example 66, N-(2-(4-benzylpiperidin-1-yl)ethyl)-5-hydroxy-1H-Indol-2-carboxamide] |  |  | 38.79 | 0.265 | 21.59 | 8.78 | 0.036 | 0.167 | significantly inhibited | about 8600 cm | about 880 seconds
9 | O=C(NCCN1CCN(c2cccc(Cl)c2Cl)CC1)c1cc2ccccc2[nH]1 [Example 23, N-(2-(4-(2,3-dichlorophenyl)piperazin-1-yl)ethyl)-1H-indol-2-carboxamide] |  |  | 85.13 |  | 99.59 | 70.42 |  |  |  |  | 
10 | COc1ccc2[nH]c(C(=O)NCCN3CCC(Cc4ccccc4)CC3)cc2c1 [Example 33, N-(2-(4-benzylpiperidin-1-yl)ethyl)-5-methoxy-1H-indol-2-carboxamide] |  |  | 48.73 | 1.33 | 65.51 | 25.55 | 0.331 | 1.7 |  |  | 
11 | O=C(NCCN1CCC(Cc2ccccc2)CC1)c1cc2cc(O)c(O)cc2[nH]1 [Example 63, N-(2-(4-benzylpiperidin-1-yl)ethyl)-5,6-dihydroxy-1H-indol-2-carboxamide] |  |  | 38.25 | 0.369 | 48.43 | 13.34 | 0.087 | 0.092 |  |  | 
12 | O=C(NCCN1CCC(Cc2ccc(Cl)c(Cl)c2)CC1)c1ccc2cc(Br)ccc2c1 [Example 9, 6-bromo-N-(2-(4-(3,4-dichlorobenzyl)piperidin-1-yl)ethyl)-2-naphthamide] |  |  | 9.92 | 3.07 | 98.42 | 78.56 | 2.91 |  |  |  | 
13 | CC(CN1CCC(Cc2ccccc2)CC1)NC(=O)c1cc2ccccc2[nH]1 (stereo not drawn) [Example 43, N-(1-(4-benzylpiperidin-1-yl)propan-2-yl)-1H-indol-2-carboxamide] |  |  | 81.76 |  | 56.98 | 30.29 |  |  |  |  | 
14 | O=C(NCCN1CCN(c2cccc(C(F)(F)F)c2)CC1)c1cc2ccccc2[nH]1 [Example 21, N-(2-(4-(3-(trifluoromethyl)phenyl)piperazin-1-yl)ethyl)-1H-indol-2-carboxamide] |  |  | 86.98 |  | 97.95 | 94.30 |  |  |  |  | 
15 | CCCCOc1ccc(C(=O)NCCN2CCC(c3c[nH]c4ccccc34)CC2)cc1 [Example 72, N-(2-(4-(1H-indol-3-yl)piperidin-1-yl)ethyl)-4-butoxybenzamide] |  |  | 17.44 |  | 97.62 | 58.16 |  |  |  |  | 
16 | O=C(NCCn1ccc(-c2ccc(F)cn2)n1)c1cc2ccccc2[nH]1 [Example 52, N-(2-(3-(5-fluoropyridin-2-yl)-1H-pyrazol-1-yl)ethyl)-1H-indol-2-carboxamide] |  |  | 93.19 |  | 82.74 | 85.39 |  |  |  |  | 
17 | O=C(NCCN1CCC(Cc2ccc(Cl)c(Cl)c2)CC1)c1cc2cc(F)ccc2[nH]1 [Example 51, N-(2-(4-(3,4-dichlorobenzyl)piperidin-1-yl)ethyl)-5-fluoro-1H-indol-2-carboxamide] |  |  | 27.71 | 0.331 | 83.07 | 41.61 | 0.636 |  |  |  | 
18 | O=C(NCCN1CCN(Cc2ccc(Cl)c(Cl)c2)CC1)c1ccc(Cl)c(Cl)c1 [Example 11, 3,4-dichloro-N-(2-(4-(3,4-dichlorobenzyl)piperazin-1-yl)ethyl)benzamide] |  |  | 63.40 |  | 82.25 | 75.29 |  |  |  |  | 
19 | O=C(NCCN1CCN(Cc2ccc(Cl)c(Cl)c2)CC1)c1cc2ccccc2[nH]1 [Example 22, N-(2-(4-(3,4-dichlorobenzyl)piperazin-1-yl)ethyl)-1H-indol-2-carboxamide] |  |  | 52.47 | > 10 | 91.21 | 63.72 |  |  |  |  | 
20 | O=C(NCCN1CCC(Cc2ccccc2)CC1)c1cc2cc(Cl)c(Cl)cc2[nH]1 [Example 47, N-(2-(4-benzylpiperidin-1-yl)ethyl)-5,6-dichloro-1H-indol-2-carboxamide] |  |  | 75.98 |  | 94.59 | 41.80 |  |  |  |  | 
21 | O=C(NCCn1ccc(-c2ccc(F)cn2)n1)c1ccc2cc(Br)ccc2c1 [Example 8, 6-bromo-N-(2-(3-(5-fluoropyridin-2-yl)-1H-pyrazol-1-yl)ethyl)-2-naphthamide] |  |  | 86.83 |  | 95.78 | 97.06 |  |  |  |  | 
22 | CN(CCNC(=O)c1cc2ccccc2[nH]1)Cc1ccc2ccccc2c1 [Example 68, N-(2-(methyl(napthalen-2-ylmethyl)amino)ethyl)-1H-indol-2-carboxamide] |  |  | 87.07 |  | 100.99 | 90.63 |  |  |  |  | 
